According to US20250288584A1, “COMBINATIONS COMPRISING POSITIVE ALLOSTERIC MODULATORS OR ORTHOSTERIC AGONISTS OF METABOTROPIC GLUTAMATERGIC RECEPTOR SUBTYPE 2 AND THEIR USE” (JANSSEN PHARMACEUTICA NV, priority 2014, published 2025):

Biological target: T1, human mGlu2 receptor (Homo sapiens, UniProt Q14416)
T1 construct: expressed in transfected cells; host or cells: CHO cells
Assay: [35S]GTPγS binding assay, mGluR2 PAM
Format: biochemical
Settings: for GTPγS-hmGluR2 PAM Emax / Emax: maximal % effect relative to control glutamate response, EC20 glutamate; for GTPγS-hmGluR2 PAM pEC50 / EC50: in presence of EC20 glutamate; for Emax: read-out: GTPγS-hmGluR2 PAM Emax; for EC50: read-out: GTPγS-hmGluR2 PAM pEC50 (converted)
Protocol: The [^35S]GTPγS binding assay is a functional membrane-based assay used to study G-protein coupled receptor (GPCR) function whereby incorporation of a non-hydrolysable form of GTP, [^35S]GTPγS (guanosine 5′-triphosphate, labelled with […] ^35S), is measured.
Cells were then collected by scraping in PBS and cell suspension was centrifuged (10 min at 4000 RPM in benchtop centrifuge). Supernatant was discarded and pellet gently resuspended in 50 mM Tris-HCl, pH 7.4 by mixing with a vortex and pipetting up and down. The suspension was centrifuged at 16,000 RPM (Sorvall RC-5C plus rotor SS-34) for 10 minutes and the supernatant discarded. The pellet was homogenized in 5 mM Tris-HCl, pH 7.4 using an ultra-turrax homogenizer and centrifuged again (18,000 RPM, 20 min, 4° C.). The final pellet was resuspended in 50 mM Tris-HCl, pH 7.4 and stored at-80° C. in appropriate aliquots before use. Protein concentration was determined by the Bradford method (Bio-Rad, USA) with bovine serum albumin as standard.
Measurement of mGluR2 positive allosteric modulatory activity of test compounds was performed as follows. Test compounds and glutamate were diluted in assay buffer containing 10 mM HEPES acid, 10 mM HEPES salt, pH 7.4, 100 mM NaCl, 3 mM MgCl2 and 10 μM GDP. Human mGlu2 receptor-containing membranes were thawed on ice and diluted in assay buffer supplemented with 14 μg/ml saponin. Membranes were pre-incubated with compound alone or together with a predefined (˜EC20) concentration of glutamate (PAM assay) for 30 min at 30° C. After addition of [^35S] GTPγS (f.c. 0.1 nM), assay mixtures were shaken briefly and further incubated to allow [^35S] GTPγS incorporation on activation (30 minutes, 30° C.). Final assay mixtures contained 7 μg of membrane protein in 10 mM HEPES acid, 10 mM HEPES salt, pH 7.4, 100 mM NaCl, 3 mM MgCl2, 10 µM GDP and 2 μg/ml saponin. Total reaction volume was 200 μl. Reactions were terminated by rapid filtration through Unifilter-96 GF/B plates (Perkin Elmer, Massachusetts, USA) using a 96-well filtermate universal harvester. Filters were washed 6 times with ice-cold 10 mM NaH2PO4/10 mM Na2HPO4, pH 7.4. Filters were then air-dried, and 40 μl of liquid scintillation cocktail (Microscint-O) was added to each well. Membrane-bound radioactivity was counted in a Microplate Scintillation and Luminescence Counter from Perkin Elmer.
The concentration-response curves of representative compounds of the present invention-obtained in the presence of EC20 of mGluR2 agonist glutamate to determine positive allosteric modulation (PAM)—were generated using the Lexis software interface (developed at J&J). Data were calculated as % of the control glutamate response, defined as the maximal response that is generated upon addition of glutamate alone. Sigmoid concentration-response curves plotting these percentages versus the log concentration of the test compound were analyzed using non-linear regression analysis. The concentration producing half-maximal effect is then calculated as EC50. The pEC50 values below were calculated as the −log EC50, when the EC50 is expressed in M. Emax is defined as relative maximal effect (i.e. maximal % effect relative to the control glutamate response).

T1 sequence (Q14416 19-872): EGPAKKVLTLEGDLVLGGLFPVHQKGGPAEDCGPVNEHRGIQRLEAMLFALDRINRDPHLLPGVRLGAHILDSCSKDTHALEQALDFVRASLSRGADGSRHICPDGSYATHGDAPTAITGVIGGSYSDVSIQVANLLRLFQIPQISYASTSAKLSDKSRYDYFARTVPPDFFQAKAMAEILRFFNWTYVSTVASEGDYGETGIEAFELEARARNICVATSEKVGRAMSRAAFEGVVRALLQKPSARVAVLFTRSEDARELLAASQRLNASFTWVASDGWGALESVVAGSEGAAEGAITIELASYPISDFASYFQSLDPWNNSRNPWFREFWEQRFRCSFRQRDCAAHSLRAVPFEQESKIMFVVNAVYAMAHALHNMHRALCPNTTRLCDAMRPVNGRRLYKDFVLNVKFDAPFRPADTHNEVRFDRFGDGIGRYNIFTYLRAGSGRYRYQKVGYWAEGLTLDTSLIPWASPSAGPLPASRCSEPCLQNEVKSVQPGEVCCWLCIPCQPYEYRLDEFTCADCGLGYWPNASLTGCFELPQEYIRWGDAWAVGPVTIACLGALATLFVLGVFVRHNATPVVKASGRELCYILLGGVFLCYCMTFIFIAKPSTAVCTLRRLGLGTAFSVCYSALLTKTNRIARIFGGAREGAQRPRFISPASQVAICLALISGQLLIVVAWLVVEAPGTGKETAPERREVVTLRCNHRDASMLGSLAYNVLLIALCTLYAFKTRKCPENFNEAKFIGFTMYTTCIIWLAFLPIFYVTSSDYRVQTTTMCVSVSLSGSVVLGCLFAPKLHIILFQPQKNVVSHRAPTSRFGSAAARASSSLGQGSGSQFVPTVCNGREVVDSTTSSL

Row | GTPγS-hmGluR2 PAM pEC50 | Emax [%] | SMILES | also measured
1 | – | – | CCOCc1nnc2c(C(F)(F)F)c(C(C)Oc3c(F)cc(F)cc3F)ccn12 (single isomer, unassigned) [Co. No. 22-b, 3-(Ethoxymethyl)-8-(trifluoromethyl)-7-[(1*R)-1-(2,4,6-trifluorophenoxy)ethyl][1,2,4]triazolo[4,3-a]pyridine] | GTPγS-hmGluR2 PAM Emax (listed as 22-b): 325%
2 | 6.58 | 203 | CC(C)CCn1ccc(N2CCC(F)(c3ccccc3)CC2)c(Cl)c1=O [Co. No. 23-a] | –
3 | 7 | 253 | O=c1c(Cl)c(N2CCC(c3ccccc3Cl)CC2)ccn1CC1CC1 [Co. No. 15-a] | –
4 | 7.12 | 223 | O=c1c(Cl)c(N2CCC(c3cccc(C(F)(F)F)c3)CC2)ccn1CC1CC1 [Co. No. 16-a] | –
5 | – | – | CCCc1nnc2c(C(F)(F)F)c(C(C)Oc3ccc(F)cc3F)ccn12 (single isomer, unassigned) [Co. No. 31-b] | EC50: 89.1 nM; GTPγS-hmGluR2 PAM Emax (listed as 31-b): 251%
6 | – | 284 | CCCCn1ccc(N2CCC(c3ccc(C(C)(C)O)cc3)CC2)c(Cl)c1=O [Co. No. 27-a] | EC50: 331 nM
7 | – | 462 | COc1cnc(N2CCN(c3ccn4c(CC5CC5)nnc4c3C(F)(F)F)CC2)nc1 [Co. No. 9] | EC50: 126 nM
8 | 6.91 | 258 | CC(C)CCn1ccc(N2CCC(c3ccc(F)cc3F)CC2)c(Cl)c1=O [Co. No. 24-a] | –
9 | – | – | CC(Oc1ccc(F)cc1)c1ccn2c(CC3CC3)nnc2c1C(F)(F)F (single isomer, unassigned) [Co. No. 2-b, 3-(Cyclopropylmethyl)-7-[(1*R)-1-(4-fluorophenoxy)ethyl]-8-(trifluoromethyl)[1,2,4]triazolo[4,3-a]pyridine] | GTPγS-hmGluR2 PAM Emax (listed as 2-b): 228%
10 | – | 213 | CC(Oc1ccc(F)cc1F)c1ccn2c(CC3CCC3)nnc2c1C(F)(F)F (single isomer, unassigned) [Co. No. 18-b, 3-(Cyclobutylmethyl)-7-[(1*S)-1-(2,4-difluorophenoxy)ethyl]-8-(trifluoromethyl)[1,2,4]triazolo[4,3-a]pyridine] | EC50: 575 nM
11 | – | 218 | C[C@H](Oc1cc(F)ccc1F)c1ccn2c(CC3CC3)nnc2c1C(F)(F)F [Co. No. 10-b, 3-(Cyclopropylmethyl)-7-[(1S)-1-(2,5-difluorophenoxy)ethyl]-8-(trifluoromethyl)[1,2,4]triazolo[4,3-a]pyridine] | –
12 | 6.88 | 290 | O=c1c(Cl)c(N2CCC(c3ccccc3)CC2)ccn1CCC1CC1 [Co. No. 10-a] | –
13 | – | 281 | Cc1cc(F)ccc1O[C@@H](C)c1ccn2c(CC3CC3)nnc2c1C(F)(F)F [Co. No. 14-b, 3-(Cyclopropylmethyl)-7-[(1S)-1-(4-fluoro-2-methylphenoxy)ethyl]-8-(trifluoromethyl)[1,2,4]triazolo[4,3-a]pyridine] | –
14 | – | 296 | CC(Oc1ccc(F)cc1)c1ccn2c(CC3CC3)nnc2c1C(F)(F)F (stereo not drawn) [Co. No. 1-b, 3-(Cyclopropylmethyl)-7-[1-(4-fluorophenoxy)ethyl]-8-(trifluoromethyl)[1,2,4]triazolo-[4,3-a]pyridine] | –
15 | – | 212 | O=c1c(Cl)c(N2CCC(c3ccc(N4CCOCC4)cc3)CC2)ccn1CC1CC1 [Co. No. 13-a] | EC50: 214 nM
16 | – | 227 | CCCc1nnc2c(C(F)(F)F)c(C(C)Oc3ccc(F)cc3F)ccn12 (stereo not drawn) [Co. No. 30-b, 7-[1-(2,4-Difluorophenoxy)ethyl]-3-propyl-8-(trifluoromethyl)[1,2,4]triazolo[4,3-a]pyridine] | –
17 | – | 261 | CC1(C)OC2(CCN(c3ccn4c(CC(F)(F)F)nnc4c3Cl)CC2)c2ccccc21 [Co. No. 12] | –
18 | 6.92 | 259 | O=c1c(Cl)c(N2CCC(c3ccc(F)cc3F)CC2)ccn1CC1CC1 [Co. No. 14-a] | –
19 | – | 292 | C[C@H](Oc1cc(F)cc(F)c1)c1ccn2c(CC3CC3)nnc2c1C(F)(F)F [Co. No. 7-b, 3-(Cyclopropylmethyl)-7-[(1S)-1-(3,5-difluorophenoxy)ethyl]-8-(trifluoromethyl)[1,2,4]triazolo[4,3-a]pyridine] | –
